Tested on: CTx-induced fluid secretion in the mouse intestine
Test: Cholera-toxin induced closed-loop mouse diarrheal model, individual polyphenols and their combination
Format: in vivo
Details: for Concentration that did not have any effect on the CTx-induced fluid secretion: individual compound, CTx 1 μg per loop; for Effect on fluid accumulation elicited by CTx: individual polyphenols, dose-dependent
Description: Following identification, individual reagents of cyanidin, delphinidin, epicatechin gallate and epigallocatechin gallate were acquired from ChromaDex (Chromadex, Irvine, Calif., USA) and tested in the same cholera-toxin induced closed-loop mouse diarrheal model described above. We sought and resolved the IC^50 concentration of each individual component as relevant for the treatment of cholera-toxin induced intestinal secretion.
Mice (19-35 g) were fasted for 24-48 h, weighed and anesthetized with Avertin Sigma-Aldrich, St. Louise, Mo., USA) (250 mg/kg IP induction dose f.b. 2.6 mg IP every 30-45 minutes as needed for maintenance of anesthesia). Body temperature was maintained at 37-38° C. using a heating pad.
Abdomen was opened. Small, and part of the large intestine were identified. 2-4 cm loops were ligated in the proximal jejunum beginning immediately downstream of Treitz ligament. Loops were separated by 1-2 cm of intervening small intestine. After ligation, one loop was injected with 100 μl of PBS, second loop was injected with CTx solution (Cayman chemicals, 1 μg in 100 μl PBS and third loop was injected with CTx and polyphenol solution (Chromadex, Irvine, Calif., USA) in 100 μl of PBS. Injected loops were photographed and carefully placed back into the abdominal cavity and then abdomen was closed with two sutures. After 4 to 6-hour incubation, animal was euthanized and entire length of small intestine, cecum and ascending transverse colon were removed as a single prep. Loops were excised, trimmed of fat, measured and weighted. Mice were euthanized by cervical dislocation or an overdose injection of Avertin. All animal protocols were approved by the Laboratory Animal Ethical Committee of Vanessa Research Inc. The loop weight/length ratio was calculated.
Flavan-3-ols and gallotannins stock solutions (stock dilutions (stored at −20 C)) and working dilutions (PBS) were designated and prepared as follows:
F1A—Cyanidin chloride (Chromadex, ASB-00003955-005 Lot #00003955-041) 5 mg dissolved in 1 ml methanol (Sigma-Aldrich, Saint Louise, Mo., USA) to 5 mg/ml stock. Original concentration used in experiments 0.05 mg/ml. Serial dilutions from 1:10 to 1:100,000 with increments of 1:10 were prepared for experiments.
F1B—Delphinidin chloride (Chromadex, ASB-00004125-001 Lot #00004125-504) 1 mg dissolved in 143 ul methanol to 7 mg/ml stock. Original concentration used in experiments 0.07 mg/ml. Serial dilutions from 1:10 to 1:100,000 with increments of 1:10 were prepared for experiments.
F1C—Epicatechin gallate (Chromadex, ASB-00005135-005 Lot #00005135-523) 5 mg dissolved in 1 ml methanol to 5 mg/ml stock. Original concentration used in experiments […] (1:50 dilution of 5 mg/ml stock). Serial dilutions from 1:10 to 1:100,000 with increments of 1:10 were prepared for experiments.
F1D—Epigallocatechin gallate (Chromadex, ASB-00005150-005 Lot #00005150-008) 5 mg dissolved in 1 ml methanol to 5 mg/ml stock. Original concentration used in experiments […] (1:33.4 of 5 mg/ml stock). Serial dilutions from 1:10 to 1:100,000 with increments of 1:10 were prepared for experiments.
However, in order to confirm or exclude the idea of synergism between multiple polyphenols in exertion of the anti-secretory effect following induction of fluid secretion with CTx, we attempted a treatment with a combination of all 4 polyphenols in the concentrations as indicated in Table 1. The ratio of concentrations (mg/ml) of individual members (cyaniding:delphinidin:epicatechin gallate:epigallocatechin gallate) in the combination was derived from Table 1 as 500:70:1:150 (weight ratio) accordingly.
Data analysis was done as follows: The formula was used as adapted from Yamamoto K., 1979:
Mass accumulation=Tm−(Cm/CL)×TL
After determining fluid accumulation in treated and untreated samples, a percent reduction in mass was performed using the mass obtained from the previous formula
5. The certain variables were removed based on the Exclusion Criteria for Data: […]

| Structure (SMILES) | Concentration that did not have any effect on the CTx-induced fluid secretion [mg/mL] | Effect on fluid accumulation elicited by CTx |
| --- | --- | --- |
| Oc1cc(O)c2cc(O)c(-c3ccc(O)c(O)c3)[o+]c2c1.[Cl-] [F1A, Cyanidin chloride] | 5e-06 | significantly reduced fluid accumulation |
| Oc1cc(O)c2cc(O)c(-c3cc(O)c(O)c(O)c3)[o+]c2c1 [F1B, Delphinidin chloride] | 7e-08 | significantly reduced fluid accumulation |
| O=C(O[C@@H]1Cc2c(O)cc(O)cc2O[C@@H]1c1ccc(O)c(O)c1)c1cc(O)c(O)c(O)c1 [F1C, Epicatechin gallate] | 1e-08 | significantly reduced fluid accumulation |
| O=C(O[C@@H]1Cc2c(O)cc(O)cc2O[C@@H]1c1cc(O)c(O)c(O)c1)c1cc(O)c(O)c(O)c1 [F1D, Epigallocatechin gallate] | 1e-06 | significantly reduced fluid accumulation |

Reference: patent US20210008028A1, “COMPOSITIONS AND METHODS FOR TREATING DIARRHEAL DISEASES” (VANESSA RESEARCH, INC., priority 2018, published 2021)
